# Values of other authors in PubChem BioAssay AID1259409 (Chemical Carcinogenesis Research Information System (CCRIS), 2018).
# Tested on: rodent chemically induced tumor inhibition, incidence and multiplicity
# Experiment: CCRIS tumor inhibitor studies
# Details: Route [Inhibitor]: ORAL, Promoter: NONE USED
smiles,measurement,setting,value
CC1=C(/C=C/C(C)=C/C=C/C(C)=C/C(=O)Nc2ccc(O)cc2)C(C)(C)CCC1,"tumour outcome (control, treated, inhibition, significance)","Carcinogen: N-NITROSOBIS(2-OXYPROPYL)AMINE, 60599-38-4, Dose [Inhibitor]: 0.05, 0.1 OR 0.2 MILLIMOLAR/KG DIET FOR 32 WK STARTING 1 WK AFTER THE CARCINOGEN DOSE (STUDY DURATION: 33 WK), Species: HAMSTER, Strain/Sex: SYRIAN/MALE, Target Tissue: Type of Lesion: LUNG: ADENOMA, Dose [Carcinogen]: 40 MG/KG ONCE","1/12 (8%), 2/21 (10%), -25%, not significant"
same,"tumour outcome (control, treated, inhibition, significance)","Carcinogen: N-NITROSOBIS(2-OXYPROPYL)AMINE, 60599-38-4, Dose [Inhibitor]: 0.05, 0.1 OR 0.2 MILLIMOLAR/KG DIET FOR 32 WK STARTING 1 WK AFTER THE CARCINOGEN DOSE (STUDY DURATION: 33 WK), Species: HAMSTER, Strain/Sex: SYRIAN/MALE, Target Tissue: Type of Lesion: PANCREAS: ADENOMA, Dose [Carcinogen]: 40 MG/KG ONCE","12/12 (100%), 21/21 (100%), 0%, not significant"
same,"tumour outcome (control, treated, inhibition, significance)","Carcinogen: N-NITROSOBIS(2-OXYPROPYL)AMINE, 60599-38-4, Dose [Inhibitor]: 0.05, 0.1 OR 0.2 MILLIMOLAR/KG DIET FOR 32 WK STARTING 1 WK AFTER THE CARCINOGEN DOSE (STUDY DURATION: 33 WK), Species: HAMSTER, Strain/Sex: SYRIAN/MALE, Target Tissue: Type of Lesion: PANCREAS: CARCINOMA, Dose [Carcinogen]: 40 MG/KG ONCE","6/12 (50%), 13/21 (62%), -24%, not significant"
same,"tumour outcome (control, treated, inhibition, significance)","Carcinogen: NONE USED, Dose [Inhibitor]: 1 MILLIMOLAR IN DIET DAILY FOR 39 WK STARTING AT 2 MO OF AGE THROUGH THE END OF THE STUDY (STUDY DURATION: 39 WK), Species: MOUSE, Strain/Sex: C3H/FEMALE, Target Tissue: Type of Lesion: MAMMARY GLAND: ADENOCARCINOMA","83/98 (85%), 71/100 (71%), 16%, not significant"
same,"tumour outcome (control, treated, inhibition, significance)","Carcinogen: NONE USED, Dose [Inhibitor]: 1 MILLIMOLAR IN DIET FOR 14 WK STARTING AT 4-6 MO OF AGE THROUGH THE END OF THE STUDY (STUDY DURATION: 14 WK), Species: MOUSE, Strain/Sex: C3H/FEMALE, Target Tissue: Type of Lesion: MAMMARY GLAND: ADENOCARCINOMA","54/78 (69%), 62/78 (80%), -16%, not significant"
same,"tumour outcome (control, treated, inhibition, significance)","Carcinogen: NONE USED, Dose [Inhibitor]: 1 MILLIMOLAR IN DIET FOR 39 WK STARTING AT 2 MO OF AGE THROUGH THE END OF THE STUDY (STUDY DURATION: 39 WK), Species: MOUSE, Strain/Sex: C3H/FEMALE, Target Tissue: Type of Lesion: MAMMARY GLAND: ADENOCARCINOMA","83/98 (85%), 71/100 (71%), 16%, not significant"
same,"tumour outcome (control, treated, inhibition, significance)","Carcinogen: NONE USED, Dose [Inhibitor]: 1.0 MM/KG IN DIET DAILY FOR 14 WK STARTING AT 4-6 MO OF AGE THROUGH THE END OF THE STUDY (STUDY DURATION: 14 WK), Species: MOUSE, Strain/Sex: C3H/FEMALE, Target Tissue: Type of Lesion: MAMMARY GLAND: ADENOCARCINOMA","54/78 (69%), 62/78 (80%), -16%, not significant"
same,"tumour outcome (control, treated, inhibition, significance)","Carcinogen: NONE USED, Dose [Inhibitor]: 783 MG/KG DIET DAILY FOR 54 WK (STUDY DURATION: 54 WK), Species: RAT, Strain/Sex: ACI/MALE, Target Tissue: Type of Lesion: ADRENAL GLAND: TUMOR","15/43 (35%), 18/43 (42%), -20%, not significant"
same,"tumour outcome (control, treated, inhibition, significance)","Carcinogen: NONE USED, Dose [Inhibitor]: 783 MG/KG DIET DAILY FOR 54 WK (STUDY DURATION: 54 WK), Species: RAT, Strain/Sex: ACI/MALE, Target Tissue: Type of Lesion: PANCREAS: ADENOMA","1/40 (3%), 5/44 (11%), -267%, not significant"
same,"tumour outcome (control, treated, inhibition, significance)","Carcinogen: NONE USED, Dose [Inhibitor]: 783 MG/KG DIET DAILY FOR 54 WK (STUDY DURATION: 54 WK), Species: RAT, Strain/Sex: ACI/MALE, Target Tissue: Type of Lesion: PITUITARY GLAND: ADENOMA OR CARCINOMA","20/39 (51%), 19/42 (45%), 12%, not significant"
same,"tumour outcome (control, treated, inhibition, significance)","Carcinogen: NONE USED, Dose [Inhibitor]: 783 MG/KG DIET DAILY FOR 54 WK (STUDY DURATION: 54 WK), Species: RAT, Strain/Sex: ACI/MALE, Target Tissue: Type of Lesion: PROSTATE GLAND: ADENOMA OR CARCINOMA","19/44 (43%), 11/40 (28%), 35%, not significant"
same,"tumour outcome (control, treated, inhibition, significance)","Carcinogen: NONE USED, Dose [Inhibitor]: 783 MG/KG DIET DAILY FOR 54 WK (STUDY DURATION: 54 WK), Species: RAT, Strain/Sex: ACI/MALE, Target Tissue: Type of Lesion: SKIN: TUMORS","12/45 (27%), 3/45 (7%), 74%, p<0.025"
same,"tumour outcome (control, treated, inhibition, significance)","Carcinogen: NONE USED, Dose [Inhibitor]: 783 MG/KG DIET DAILY FOR 54 WK (STUDY DURATION: 54 WK), Species: RAT, Strain/Sex: ACI/MALE, Target Tissue: Type of Lesion: TESTES: INTERSTITIAL CELL TUMOR","21/45 (47%), 24/44 (55%), -17%, not significant"
